{"source": "paper PMC6862323", "about": "“Substitution of Arginine 120 in Human D-Amino Acid Oxidase Favors FAD-Binding and Nuclear Mistargeting” (Frontiers in Molecular Biosciences, 2019)", "key": {"U87 glioblastoma cells": {"tested_on": "U87 glioblastoma cells", "assay": "Confocal analysis of cellular distribution of EYFP-hDAAO variants in transiently transfected U87 cells", "assay_type": "cell-based, human", "description": "Human U87 glioblastoma cells (ATCC) were cultured in DMEM supplemented with 10% fetal bovine serum, 1 mM sodium pyruvate, 2 mM L-glutamine, 1% non-essential amino acids, 1% penicillin/streptomycin, and 1% amphotericin B (Euroclone), at 37°C in 5% CO2. The cells were transfected either with the pEYFP-hDAAO-C3 construct (for the expression of the wild-type enzyme downstream of the enhanced yellow fluorescent protein, EYFP) (Sacchi et al., [2008], [2011]), the pEYFP-hDAAO(R120L)-C3, or the pEYFP-hDAAO(R120E)-C3 expression vectors. The latter constructs were obtained by mutagenesis using the QuikChange Lightning Site-Directed Mutagenesis Kit (Agilent), and the following primers: 5′-[…]-3′ and 5′-[…]-3′ for the R120E substitution, and 5-[…]-3′ and 5′-[…]-3′ for the R120L substitution.\nFor transient transfection, 2 ×10^4 cells were seeded into eight-well chamber slides (Sarstedt). At 24 h after seeding, cells were transfected with 2 μg plasmid DNA using a 4:1 ratio of FuGENE transfection reagent (Promega) to DNA. Then, 12.5 μL of transfection mix was added to 500 μL medium per well. Protein expression levels were monitored by using a fluorescence microscope (Olympus IX51) equipped with a FITC filter and by Western blot analysis using an anti-hDAAO antibody (Davids Biotechnologie) (Sacchi et al., [2008], [2011]).\nAt 24, 48, and 72 h after transfection, cells were washed twice with PBS and fixed with ice-cold 4% p-formaldehyde and 4% sucrose for 10 min at room temperature. After fixation, cells were washed twice with PBS and blocked by incubation in PBS supplemented with 0.2% Triton X-100 and 4% horse serum for 30 min at room temperature. Peroxisomes were stained using rabbit polyclonal anti-PMP70 (peroxisomal membrane protein 70, Sigma), diluted 1:500 in PBS, 0.1% Triton X-100, and 4% horse serum overnight at 4°C; they were then washed twice in PBS and 1% horse serum and incubated for 1 h at room temperature (light protected) with goat anti-rabbit Dylight 550 secondary antibodies (Abcam) diluted 1:400 in PBS, 0.1% Triton X-100, and 1.5% horse serum. Cells were then extensively washed in PBS and nuclei were stained with DRAQ5™ (Thermo Scientific) and diluted 1:500 in PBS for 10 min at room temperature in the dark. Cells were washed three times with PBS and stored in PBS at 4°C until imaging.\nImmunostained cells were imaged using an inverted laser scanning confocal microscope (TCS SP5, Leica Microsystems), equipped with a 63.0 ×1.25 NA plan apochromatic oil immersion objective. Confocal image stacks were acquired using the Leica TCS software with a sequential mode to avoid interference between each channel and without saturating any pixel. Cells in 10–15 non-magnified optical fields were analyzed for each condition (i.e., different EYFP-hDAAO expression constructs at different times after transfection). The fluorescence signal corresponding to the overexpressed EYFP-hDAAO variants was monitored by excitation at 514 nm (yellow channel); the peroxisomal and nuclear cellular compartments were imaged by excitation at 546 nm (red channel) and 647 nm (blue channel), respectively.\nU87 glioblastoma cells were transiently transfected with a pEYFP-hDAAO-C3 plasmid encoding for EYFP-hDAAO chimeric proteins harboring R, E, or L at position 120 of the flavoenzyme. […] A similar amount of transfected cells (expressing EYFP-hDAAO protein) was obtained for all three constructs (Table 4). The percentage of cells showing a cytosolic, peroxisomal, and nuclear localization of the flavoenzyme was determined by comparing the yellow fluorescence signal of EYFP-hDAAO variants with those of the markers PMP-70 (for peroxisomes) and DRAQ5™ dye (for nuclei, Figure 5). The amount of cytosolic wild-type EYFP-hDAAO decreased with time after transfection (28% of the signal is cytosolic at 72 h vs. 94% at 24 h), as did the amount of nuclear signal (Table 4 and Figure 6). […]"}, "[1]": {"design": "method as in Molla et al. (2006) and Caldinelli et al. (2009)", "conditions": "28 mM D-alanine, pH 8.5, 25°C; ref Molla et al. (2006) and Caldinelli et al. (2009); cited from earlier work"}}}
{"substance": "Wild-type: recombinant wild-type human D-amino acid oxidase (His-tagged from E. coli; EYFP-tagged in U87 cells)", "values": [{"measurement": "hDAAO cellular distribution: A, large cytosolic aggregates detected", "setting": "U87 glioblastoma cells; 24 h after transfection", "result": "18.7 % of transfected cells"}, {"measurement": "hDAAO cellular distribution: C, cytosol", "setting": "U87 glioblastoma cells; 24 h after transfection", "result": "69.4 % of transfected cells"}, {"measurement": "hDAAO cellular distribution: C/P, mixed, cytosol and peroxisomes", "setting": "U87 glioblastoma cells; 24 h after transfection", "result": "13.4 % of transfected cells"}, {"measurement": "hDAAO cellular distribution: N, nucleus", "setting": "U87 glioblastoma cells; 24 h after transfection", "result": "14.4 % of transfected cells"}, {"measurement": "hDAAO cellular distribution: P, peroxisomes", "setting": "U87 glioblastoma cells; 24 h after transfection", "result": "17.2 % of transfected cells"}, {"measurement": "hDAAO cellular distribution: A, large cytosolic aggregates detected", "setting": "U87 glioblastoma cells; 48 h after transfection", "result": "15.4 % of transfected cells"}, {"measurement": "hDAAO cellular distribution: C, cytosol", "setting": "U87 glioblastoma cells; 48 h after transfection", "result": "21.2 % of transfected cells"}, {"measurement": "hDAAO cellular distribution: C/P, mixed, cytosol and peroxisomes", "setting": "U87 glioblastoma cells; 48 h after transfection", "result": "26.9 % of transfected cells"}, {"measurement": "hDAAO cellular distribution: N, nucleus", "setting": "U87 glioblastoma cells; 48 h after transfection", "result": "9.6 % of transfected cells"}, {"measurement": "hDAAO cellular distribution: P, peroxisomes", "setting": "U87 glioblastoma cells; 48 h after transfection", "result": "51.9 % of transfected cells"}, {"measurement": "cytosolic signal", "setting": "U87 glioblastoma cells; 72 h after transfection", "result": 28, "unit": "%"}, {"measurement": "hDAAO cellular distribution: A, large cytosolic aggregates detected", "setting": "U87 glioblastoma cells; 72 h after transfection", "result": "5.6 % of transfected cells"}, {"measurement": "hDAAO cellular distribution: C, cytosol", "setting": "U87 glioblastoma cells; 72 h after transfection", "result": "10.4 % of transfected cells"}, {"measurement": "hDAAO cellular distribution: C/P, mixed, cytosol and peroxisomes", "setting": "U87 glioblastoma cells; 72 h after transfection", "result": "18.4 % of transfected cells"}, {"measurement": "hDAAO cellular distribution: N, nucleus", "setting": "U87 glioblastoma cells; 72 h after transfection", "result": "4.0 % of transfected cells"}, {"measurement": "hDAAO cellular distribution: P, peroxisomes", "setting": "U87 glioblastoma cells; 72 h after transfection", "result": "71.2 % of transfected cells"}, {"measurement": "Specific activity", "setting": "[1]", "result": 12.0, "unit": "U/mg protein"}]}
